Reference: patent publication US11254652B2, “Crystalline forms of N-(4-(4-(cyclopropymethyl)piperazine-1-carbonyl)phenyl)quinoline-8-sulfonamide” (Agios Pharmaceuticals, Inc., priority 2017, dated 2022)

Columns and labels:
[1] = Solubility in water and simulated fluids at 37° C. (slurry, HPLC; XRPD of residual solid); format: physicochemical; conditions: values based on hemi-sulfate sesqui-hydrate salt; for solubility at 1 h / solubility at 2 days: 37 °C, thermodynamic from solid; for solubility at 1 h: slurry time 1 hr
Method: Solubility of Patterns A, B and D were measured in water. The solids were slurried in the fluids for two days and at 37° C. The supernatant was syringe filtered and used for HPLC analysis. For Patterns A and D the solubility measurement was repeated and the sample was taken after 1 hr slurry. A calibration curve was developed using Pattern A. This was not assay corrected and therefore the solubility values are based on the hemi-sulfate, sesqui-hydrate salt.
Both Patterns B and D converted to Pattern A after two days slurry. Pattern D also converted to Pattern A within 1 hour slurry in Fasted state simulated gastric fluid (FaSSGF) or water. […] This could be because of the conversion of Patterns B and D to Pattern A. The solubility data and the resulting XRPD Pattern after the measurement are reported in Table 21.

[2] = Dynamic Vapor Sorption (DVS); format: physicochemical
Method: Dynamic Vapor Sorption (DVS) was done using a DVS Intrinsic 1. The sample is loaded into a sample pan and suspended from a microbalance. A typical sample mass for DVS measurement is 25 mg. Nitrogen gas bubbled through distilled water provides the desired relative humidity. A typical measurement comprises the steps: • 1. Equilibrate at 50% RH • 2. 50% to 2%. (50%, 40%, 30%, 20%, 10% and 2%) • a. Hold minimum of 5 mins and maximum of 60 minutes at each humidity. The pass criteria is less than 0.002% change • 3. 2% to 95% (2%, 10%, 20%, 30%, 40%, 50%, 60%, 70%, 80%, 90%, 95%) • b. Hold minimum of 5 mins and maximum of 60 minutes at each humidity. The pass criteria is less than 0.002% change • 4. 95% to 2% (95%, 80%, 70%, 60%, 50%, 40%, 30%, 20%, 10%, 2%) • c. Hold minimum of 5 mins and maximum of 60 minutes at each humidity. The pass criteria is less than 0.002% change • 5. 2% to 50% (2%, 10%, 20%, 30%, 40%, 50%) • d. Hold minimum of 5 mins and maximum of 60 minutes at each humidity. The pass criteria is less than 0.002% change
The water content by Karl Fisher was about 5.3%. […] A DVS isotherm taken at 40° C. was essentially the same as the one at 25° C. […] Humidity test was conducted on Form A with exposure to 11%, 48%, and 75% relative humidity at 40° C. for 2 weeks followed by XRPD analysis. […] Crystallographic data for Form A is as follows:
Form B tends to hold substantial amount of solvent.
Form D was determined to be anhydrous with a melting peak at 239° C. See e.g., FIG. 9. DVS of Pattern D was performed and solid picked up about 2% moisture from 2% to 95% relative humidity.

## O=C(c1ccc(NS(=O)(=O)c2cccc3cccnc23)cc1)N1CCN(CC2CC2)CC1 [Form A, 1-(cyclopropylmethyl)-4-(4-(quinoline-8-sulfonamido)benzoyl)piperazin-1-ium hemisulfate sesquihydrate]
[1]; FaSSGF, fassgf or other biorelevant
  solubility at 1 h: 7070 µg/mL
[1]; FaSSGF, fassgf or other biorelevant, slurry time 2 days
  solubility at 2 days: 6800 µg/mL
[1]; FaSSIF, slurry time 2 days, hemisulfate sesquihydrate
  Solubility: 0.24 mg Solid/mL solvent
[1]; water
  solubility at 1 h: 3050 µg/mL
[1]; water, slurry time 2 days
  solubility at 2 days: 2690 µg/mL
[2]; 25° C., from 2% to 95% relative humidity
  moisture picked up in DVS: about 1.3%
[2]; Form A: DVS at 25° C. and 40° C., hemisulfate sesquihydrate
  XRPD after DVS: remained unchanged
